# Source: patent US12590096B2, “Imidazo[2,1-f][1,2,4]triazin-4-amine as TLR8 agonists” (BeOne Medicines | GmbH, priority 2019, dated 2026)
# Molecular target: T1, human TLR 8 protein in HEK-blue hTLR 8 tool cell line (Homo sapiens, UniProt Q9NR97)
# T1 construct: expressed in transfected cells; host or cells: HEK293 (HEK-Blue hTLR8)
# T1 sequence (Q9NR97 27-1041): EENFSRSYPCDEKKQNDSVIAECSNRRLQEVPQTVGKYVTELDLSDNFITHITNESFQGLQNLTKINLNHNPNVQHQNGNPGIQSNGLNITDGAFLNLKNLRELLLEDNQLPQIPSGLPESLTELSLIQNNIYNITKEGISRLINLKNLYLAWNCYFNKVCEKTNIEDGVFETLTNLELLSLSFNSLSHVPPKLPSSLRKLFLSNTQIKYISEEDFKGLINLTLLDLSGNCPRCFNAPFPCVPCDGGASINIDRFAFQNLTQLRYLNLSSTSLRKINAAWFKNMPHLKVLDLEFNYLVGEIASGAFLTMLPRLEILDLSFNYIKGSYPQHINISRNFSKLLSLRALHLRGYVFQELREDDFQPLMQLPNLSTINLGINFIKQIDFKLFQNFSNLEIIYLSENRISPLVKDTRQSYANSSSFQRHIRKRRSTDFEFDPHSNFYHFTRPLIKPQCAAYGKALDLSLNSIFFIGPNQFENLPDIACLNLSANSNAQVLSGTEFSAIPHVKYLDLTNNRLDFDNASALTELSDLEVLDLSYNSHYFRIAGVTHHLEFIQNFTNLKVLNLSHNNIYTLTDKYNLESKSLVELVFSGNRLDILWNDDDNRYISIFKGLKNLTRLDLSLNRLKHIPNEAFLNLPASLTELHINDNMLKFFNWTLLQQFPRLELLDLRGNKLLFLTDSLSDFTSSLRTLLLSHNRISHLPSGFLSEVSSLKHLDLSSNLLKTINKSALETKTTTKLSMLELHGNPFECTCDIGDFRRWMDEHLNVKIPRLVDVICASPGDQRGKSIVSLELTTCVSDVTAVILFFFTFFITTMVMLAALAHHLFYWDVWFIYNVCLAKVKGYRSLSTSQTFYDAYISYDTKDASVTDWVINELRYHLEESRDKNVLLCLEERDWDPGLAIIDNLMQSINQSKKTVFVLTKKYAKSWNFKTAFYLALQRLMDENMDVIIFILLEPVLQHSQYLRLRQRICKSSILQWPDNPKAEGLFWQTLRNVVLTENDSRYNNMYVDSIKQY
# Assay: TLR8 stimulation determined by HEK-Blue Detection (NF-κB/SEAP reporter)
# Format: cell-based
# Conditions: HEK-Blue hTLR8 cells, 16 h incubation, relative to maximum activation by Resiquimod or motolimod; read-out: EC50 (nmol)
# From the text: TLR8 Stimulation Determined by HEK-Blue Detection
# This assay was designed to study the stimulation of human TLR 8 protein in HEK-blue hTLR 8 tool cell line by monitoring the activation of NF-κB. HEK-blue hTLR8 cells were obtained by co-transfection of hTLR8 gene and optimized secretory embryonic alkaline phosphatase (SEAP) reporter gene into HEK293 cells. SEAP reporter gene was put under the control of […] minimal promoter fused with five NF-κB and AP-1-binding sites. NF-κB and AP-1 were activated by stimulation with TLR 8 ligand, thus inducing the expression of SEAP. The level of SEAP can be easily determined by HEK-Blue Detection (a cell culture medium that allows real-time detection of SEAP). HEK-Blue Detection comprises all nutrients needed for cell growth and specific SEAP color substrates. The hydrolysis of substrate by SEAP produces purple/blue color which can be measured by spectrophotometer.
# When growing to 50-80% confluence, HEK-Blue hTLR7/8 cells were plated into 96-well plates (costar 3599) at a density of 40,000 cells/well. Then, the compound serially diluted at 10 points with a final concentration ranging from 1 nM to 10 μm in 0.1% DMSO/HEK-Blue Detection was added. The plates were then incubated in 5% CO2 at 37° C. for 16 h. Optical density at 620-655 nm was read on BMG PHERAstar FSX instrument. The EC50 of each compound was determined by calculating the maximum activation percentage identified using Resiquimod or motolimod.
# The EC50 of the tested compound of the present invention is as follows.
row,Compound,EC50
1,"CCC[C@H](C)Oc1nc(N)c2ncc(CC3CCC4(CC3)CNC4)n2n1 [Compound B43, (S)-7-((2-azaspiro[3.5]non-7-yl)methyl)-2-(pent-2-yloxy)imidazo[2,1-f][1,2,4]triazin-4-amine]",0.024 µM
2,"CCCC(CCO)Oc1nc(N)c2ncc(CC3CCNCC3)n2n1 (stereo not shown) [Compound B28, 3-((4-amino-7-(piperidin-4-ylmethyl)imidazo[2,1-f][1,2,4]triazin-2-yl)oxy)hexan-1-ol]",0.308 µM
3,"CCCC(C)Oc1nc(N)c2ncc(CC3CCCCC3)n2n1 (stereo not shown) [Compound B29, 7-(cyclohexylmethyl)-2-(pent-2-yloxy)imidazo[2,1-f][1,2,4]triazin-4-amine]",> 10 µM
4,"CCCC(C)Oc1nc(N)c2ncc(CC3(C)CCNCC3)n2n1 (stereo not shown) [Compound B8, 7-((4-methylpiperidin-4-yl)methyl)-2-(pent-2-yloxy)imidazo[2,1-f][1,2,4]triazin-4-amine]",0.515 µM
5,"CCC[C@H](C)Oc1nc(N)c2ncc(CC3CCN(C)CC3)n2n1 [Compound B32, (S)-7-((1-methylpiperidin-4-yl)methyl)-2-(pent-2-yloxy)imidazo[2,1-f][1,2,4]triazin-4-amine]",0.022 µM
6,CCCC(C)Oc1nc(N)c2ncc(CN3CCC(CNC)CC3)n2n1 (stereo not shown) [Compound B22],> 10 µM
7,"CCC[C@H](C)Oc1nc(N)c2ncc(CC3CC4(CCNCC4)C3)n2n1 [Compound B50, (S)-7-((7-azaspiro[3.5]non-2-yl)methyl)-2-(pent-2-yloxy)imidazo[2,1-f][1,2,4]triazin-4-amine]",0.209 µM
8,"CCCC(C)Oc1nc(N)c2ncc(CN3CCNC[C@@H]3C)n2n1 (stereo partly drawn) [Compound B17, 7—(((S)-2-methylpiperazin-1-yl)methyl)-2-(pent-2-yloxy)imidazo[2,1-f][1,2,4]triazin-4-amine]",3.95 µM
9,"CCCC(C)Oc1nc(N)c2ncc(CC3CCOCC3)n2n1 (stereo not shown) [Compound B36, 2-(pent-2-yloxy)-7-((tetrahydro-2H-pyran-4-yl)methyl)imidazo[2,1-f][1,2,4]triazin-4-amine]",> 10 µM
10,"CCCC(C)Oc1nc(N)c2ncc(CN3CCNC[C@H]3C)n2n1 (stereo partly drawn) [Compound B18, 7—(((R)-2-methylpiperazin-1-yl)methyl)-2-(pent-2-yloxy)imidazo[2,1-f][1,2,4]triazin-4-amine]",2.72 µM
11,"CCC[C@H](C)Oc1nc(N)c2ncc(CC3CCN(CC4CCNCC4)CC3)n2n1 [Compound B14, (S)-2-(pent-2-yloxy)-7-((1-(piperidin-4-ylmethyl)piperidin-4-yl)methyl)imidazo[2,1-f][1,2,4]triazin-4-amine]",0.138 µM
12,"CCCCOc1nc(N)c2ncc(CC3CCNCC3)n2n1 [Compound B1, 2-butoxy-7-(piperidin-4-ylmethyl)imidazo[2,1-f][1,2,4]triazin-4-amine]",0.051 µM
13,"CCC[C@H](C)Oc1nc(N)c2ncc(CC3CCN(C4CCNC4)CC3)n2n1 (stereo partly drawn) [Compound B13, 2—(((S)-pent-2-yl)oxy)-7-((1-(pyrrolidin-3-yl)piperidin-4-yl)methyl)imidazo[2,1-f][1,2,4]triazin-4-amine]",0.387 µM
14,"CCCC(C)Nc1nc(N)c2ncc(CC3CCNCC3)n2n1 (stereo not shown) [Compound B5, N2-(pent-2-yl)-7-(piperidin-4-ylmethyl)imidazo[2,1-f][1,2,4]triazin-2,4-diamine]",0.917 µM
15,"CCCCOc1nc(N)c2ncc(CCC3CCNCC3)n2n1 [Compound B3, 2-butoxy-7-(2-(piperidin-4-yl)ethyl)imidazo[2,1-f][1,2,4]triazin-4-amine]",0.346 µM
16,"CCC[C@H](C)Oc1nc(N)c2ncc(CC34CC(N)(C3)C4)n2n1 [Compound B40, (S)-7-((3-aminobicyclo[1.1.1]pent-1-yl)methyl)-2-(pent-2-yloxy)imidazo[2,1-f][1,2,4]triazin-4-amine]",1.01 µM
17,"CCC[C@H](C)Oc1nc(N)c2ncc(CC3CCCN3)n2n1 (stereo partly drawn) [Compound B42, 2-(((S)-pent-2-yl)oxy)-7-(pyrrolidin-2-ylmethyl)imidazo[2,1-f][1,2,4]triazin-4-amine]",0.036 µM
18,"CCCC(C)Oc1nc(N)c2ncc(CN3CCC(NC)CC3)n2n1 (stereo not shown) [Compound B21, 7-((4-(methylamino)piperidin-1-yl)methyl)-2-(pent-2-yloxy)imidazo[2,1-f][1,2,4]triazin-4-amine]",> 10 µM
19,"CCC[C@H](C)Oc1nc(N)c2ncc(CC3CCCNC3)n2n1 (stereo partly drawn) [Compound B10, 2—(((S)-pent-2-yl)oxy)-7-(piperidin-3-ylmethyl)imidazo[2,1-f][1,2,4]triazin-4-amine]",0.172 µM

# Other lines, results leading:
row,EC50,Compound
1,0.531 µM,"CCCC(Cc1ccccc1)Oc1nc(N)c2ncc(CC3CCNCC3)n2n1 (stereo not shown) [Compound B45, 2-((1-phenylpent-2-yl)oxy)-7-(piperidin-4-ylmethyl)imidazo[2,1-f][1,2,4]triazin-4-amine]"
2,0.225 µM,"CCCC(CO)Oc1nc(N)c2ncc(CC3CCNCC3)n2n1 (stereo not shown) [Compound B34, 2-((4-amino-7-(piperidin-4-ylmethyl)imidazo[2,1-f][1,2,4]triazin-2-yl)oxy) pentan-1-ol]"
3,> 10 µM,"Nc1nc(OCC2CCOC2)nn2c(CC3CCNCC3)cnc12 (stereo not shown) [Compound B46, 7-(piperidin-4-ylmethyl)-2-((tetrahydrofuran-3-yl)methoxy)imidazo[2,1-f][1,2,4]triazin-4-amine]"
4,0.015 µM,"CCCC(C)Oc1nc(N)c2ncc(CC3CCNCC3)n2n1 (stereo not shown) [Compound B2, 2-(pent-2-yloxy)-7-(piperidin-4-ylmethyl)imidazo[2,1-f][1,2,4]triazin-4-amine]"
5,0.529 µM,"CCCC(C)Oc1nc(N)c2ncc(CN3CCNCC3)n2n1 (stereo not shown) [Compound B9, 2-(pent-2-yloxy)-7-(piperazin-1-ylmethyl)imidazo[2,1-f][1,2,4]triazin-4-amine]"
6,0.127 µM,"CCC[C@H](C)Oc1nc(N)c2ncc(CC3CNC3)n2n1 [Compound B39, (S)-7-(azetidin-3-ylmethyl)-2-(pent-2-yloxy)imidazo[2,1-f][1,2,4]triazin-4-amine]"
7,0.41 µM,"CCC[C@H](C)Oc1nc(N)c2ncc(CC3CCCCN3)n2n1 (stereo partly drawn) [Compound B51, 2-(((S)-pent-2-yl)oxy)-7-(piperidin-2-ylmethyl)imidazo[2,1-f][1,2,4]triazin-4-amine]"
8,8.49 µM,"CCCC(C)Oc1nc(N)c2ncc(CN3CCN[C@@H](C)C3)n2n1 (stereo partly drawn) [Compound B16, 7—(((S)-3-methylpiperazin-1-yl)methyl)-2-(pent-2-yloxy)imidazo[2,1-f][1,2,4]triazin-4-amine]"
9,3.86 µM,"CCC[C@H](C)Oc1nc(N)c2ncc(CC3CCNCC3(C)C)n2n1 (stereo partly drawn) [Compound B53, 7-((3,3-dimethylpiperidin-4-yl)methyl)-2-(((S)-pent-2-yl)oxy)imidazol[2,1-f][1,2,4]triazin-4-amine]"
10,> 10 µM,"CCC[C@H](C)Oc1nc(N)c2ncc(NC3CCNCC3)n2n1 [Compound B37, (S)-2-(pent-2-yloxy)-N7-(piperidin-4-yl)imidazo[2,1-f][1,2,4]triazin-4,7-diamine]"
11,1.08 µM,"CCCC(C)Oc1nc(N)c2ncc(CN3CCN[C@H](C)C3)n2n1 (stereo partly drawn) [Compound B15, 7—(((R)-3-methylpiperazin-1-yl)methyl)-2-(pent-2-yloxy)imidazo[2,1-f][1,2,4]triazin-4-amine]"

# Same assay, conditions: HEK-Blue hTLR8 cells, 16 h incubation; unit μM; read-out: EC50
row,EC50,Compound
1,> 10 µM,"CCC[C@H](C)Oc1nc(N)c2ncc(/C=C3/CCNCC3(C)C)n2n1 [Compound B52, (S)-7-((3,3-dimethylpiperidin-4-ylidene)methyl)-2-(pent-2-yloxy)imidazo[2,1-f][1,2,4]triazin-4-amine]"
